In PubChem BioAssay (NCI):
“And” between values parts separate entries of the source, which are not always exact repeats. Identical values can stand only once.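 Five compound concentrations were applied to cells in 96-well plates for 48 hours; endpoints were derived by simple linear interpolation of the resulting dose-response curve. Abbreviation: GI50, concentration required for 50% inhibition of growth. TGI denotes the concentration required for complete inhibition of growth.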

Key:
Experiment in all cases: inhibition of tumour cell growth, NCI panel, 48 h
786-0 renal = system: 786-0 renal
UACC-257 melanoma = system: UACC-257 melanoma
NCI/ADR-RES ovarian = system: NCI/ADR-RES ovarian
OVCAR-4 ovarian = system: OVCAR-4 ovarian
HL-60(TB) leukemia = system: HL-60(TB) leukemia
SF-295 CNS = system: SF-295 CNS
NCI-H522 lung = system: NCI-H522 lung
OVCAR-5 ovarian = system: OVCAR-5 ovarian
EKVX NSCLC = system: EKVX NSCLC
RPMI-8226 leukemia = system: RPMI-8226 leukemia

SMILES	GI50 (786-0 renal) [µM]	TGI (786-0 renal) [µM]	GI50 (UACC-257 melanoma) [µM]	TGI (UACC-257 melanoma)	GI50 (NCI/ADR-RES ovarian) [µM]	TGI (NCI/ADR-RES ovarian) [µM]	GI50 (OVCAR-4 ovarian) [µM]	TGI (OVCAR-4 ovarian) [µM]	GI50 (HL-60(TB) leukemia) [µM]	TGI (HL-60(TB) leukemia)	GI50 (SF-295 CNS) [µM]	TGI (SF-295 CNS) [µM]	GI50 (NCI-H522 lung) [µM]	TGI (NCI-H522 lung)	GI50 (OVCAR-5 ovarian) [µM]	TGI (OVCAR-5 ovarian) [µM]	GI50 (EKVX NSCLC) [µM]	TGI (EKVX NSCLC) [µM]	GI50 (RPMI-8226 leukemia) [µM]	TGI (RPMI-8226 leukemia)
CN(C)CCN1C(=O)c2cccc3c(-c4ccc5ncn(C6CCCCC6)c5c4)ccc(c23)C1=O	1.59	12.2	3.19	8.41 µM	1.14	13.4	2.11	18.1	2.18	10.5 µM	1.54	5.93	1.85	5.24 µM	2.99	20.1	2.05	7.73	1.03	6.1 µM
C[C@@H]1CCC2[C@@H](C)[C@H](OC(=O)CCC(=O)NCCNC(=O)Cc3cc(=O)oc4cc(N(C)C)ccc34)O[C@@H]3O[C@]4(C)CC[C@@H]1C23OO4 (stereo partly drawn)	4.24	65.2	4.04	> 100 µM	1.19	22.9	11.4	> 100	0.301	6.77 µM	2.04	> 100	0.731	11.1 µM	1.28	> 76.9	0.645	9.47	0.378	32.9 µM
COC(=O)c1cccc2c1Oc1ccccc1S2	–	> 100	–	> 100 µM	–	> 100	–	> 100	–	28.9 µM	–	> 100	–	> 100 µM	–	> 100	–	> 100	–	> 100 µM
C=C1C(=O)O[C@H]2[C@H]1CC/C(COC(=O)NCc1cccc(OC)c1)=C\CC[C@@]1(C)O[C@@H]21	1.84	3.61	1.96	5.79 µM	3.07	12.3	2.61	11.1	1.21	4.51 µM	9.76	21.7	1.22	2.8 µM	2.17	5.04	2	5.81	1.98	6.4 µM
Clc1ccc2c(NCCN3CCN(c4ccnc(N5CCCC5)n4)CC3)ccnc2c1	3.32	11.1	2.29	4.35 µM	4.12	18.1	3.87	28.2	2.37	6.25 µM	2.37	5.44	3.27	11.1 µM	5.1	21.4	10.2	24.4	2.48	7.08 µM
c1ccc([P+](CCC[P+](c2ccccc2)(c2ccccc2)c2ccccc2)(c2ccccc2)c2ccccc2)cc1	–	> 100	2.77	> 100 µM and 41.1 µM	> 100	> 100	5.51	> 100	2.27	36.9 µM and 6.75 µM	16.2	> 100	3.53	> 100 µM and 24.8 µM	34	> 100	–	> 100	1.27	> 100 µM and 10.1 µM
